Values quoted from earlier work as cited in patent US8501717B2, “Methods to treat and/or prevent mucositis” (Merck, Sharp & Dohme Corp., priority 2007, dated 2013).

Conditions: less than the effect of an equal dose of calcitriol

hypercalcemic effect compared to calcitriol (in words): reduced hypercalcemic effect
Structure (SMILES): C=C1/C(=C\C=C2/CCC[C@]3(C)C([C@H](C)CC#CC(C)(C)O)=CC[C@@H]23)C[C@@H](O)C[C@@H]1O [Ro23-7553]
